Assay results taken from BindingDB's records for doi:10.7270/Q2TX3CTT (Broad Institute, 2010).
Where a name gives a salt, the structure may show the parent alone.

Molecular target: Glycogen synthase kinase-3 beta (Homo sapiens, UniProt P49841)
Test: GSK3beta kinase inhibitor potency, dose response, biochemical, luminescence, cell-free homogeneous, retest (AID 434954)

Sequence of Glycogen synthase kinase-3 beta (P49841 whole entry): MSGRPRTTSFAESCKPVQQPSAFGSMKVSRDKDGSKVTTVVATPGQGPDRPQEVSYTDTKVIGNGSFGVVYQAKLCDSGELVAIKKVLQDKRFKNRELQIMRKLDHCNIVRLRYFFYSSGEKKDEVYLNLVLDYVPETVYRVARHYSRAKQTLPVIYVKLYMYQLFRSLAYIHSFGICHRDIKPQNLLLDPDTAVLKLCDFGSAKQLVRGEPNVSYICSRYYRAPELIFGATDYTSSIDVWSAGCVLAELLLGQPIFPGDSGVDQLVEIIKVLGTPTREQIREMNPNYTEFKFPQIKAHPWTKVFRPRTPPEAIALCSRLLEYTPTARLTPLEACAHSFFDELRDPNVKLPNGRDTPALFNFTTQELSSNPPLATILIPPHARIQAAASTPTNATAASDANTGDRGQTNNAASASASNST

Row | SMILES | EC50
1 | CC(C)(C)c1ccc(OCC(=O)NCCN2CCCC2)cc1 [2-(4-tert-butylphenoxy)-N-(2-pyrrolidin-1-ylethyl)ethanamide;hydrochloride] | > 300 µM
2 | CC1(C)CC(CC(=O)NC(=S)Nc2ccc([N+](=O)[O-])cc2)C(=O)O1 (stereo not given) [2-(5,5-dimethyl-2-oxotetrahydro-3-furanyl)-N-{[(4-nitrophenyl)amino]carbonothioyl}acetamide] | 26.7 µM
3 | O=C(CSc1nnc(-c2ccco2)n1Cc1ccco1)N1CCOCC1 [2-(5-Furan-2-yl-4-furan-2-ylmethyl-4H-[1,2,4]triazol-3-ylsulfanyl)-1-morpholin-4-yl-ethanone] | > 300 µM
4 | COc1ccc(CCNC(=O)C(C(=O)c2ccccc2)n2cc(Cl)ccc2=O)cc1OC (stereo not given) [2-(5-chloro-2-oxopyridin-1-yl)-N-[2-(3,4-dimethoxyphenyl)ethyl]-3-oxo-3-phenylpropanamide] | > 300 µM
5 | Cc1cccc(Nc2nc(N)c([N+](=O)[O-])c(NCCO)n2)c1 [2-(6-Amino-5-nitro-2-m-tolylamino-pyrimidin-4-ylamino)-ethanol] | 5.91 µM
6 | Nc1nc(Nc2ccccc2)nc(NCCO)c1[N+](=O)[O-] [2-(6-Amino-5-nitro-2-phenylamino-pyrimidin-4-ylamino)-ethanol] | 5.77 µM
7 | Cc1ccccc1NC(=O)CSc1nc(N)c(C#N)c(-c2cccs2)c1C#N [2-(6-amino-3,5-dicyano-4-thiophen-2-ylpyridin-2-yl)sulfanyl-N-(2-methylphenyl)acetamide] | > 300 µM
8 | COc1ccc2c(CC(=O)Nc3ncc(C)s3)coc2c1 [2-(6-methoxy-1-benzofuran-3-yl)-N-(5-methyl-1,3-thiazol-2-yl)ethanamide] | > 300 µM
9 | COc1cccc2c1cc1c(=O)n(CC(=O)NCc3ccccn3)nc(C)n12 [2-(9-methoxy-4-methyl-1-oxo-[1,2,4]triazino[4,5-a]indol-2-yl)-N-(pyridin-2-ylmethyl)acetamide] | > 300 µM
10 | COc1cccc2c1cc1c(=O)n(CC(=O)NCCCN3CCCCC3)nc(C)n12 [2-(9-methoxy-4-methyl-1-oxo-[1,2,4]triazino[4,5-a]indol-2-yl)-N-[3-(1-piperidinyl)propyl]acetamide] | > 300 µM
11 | O=C(CS(=O)(=O)c1ccccc1)Nc1ncc([N+](=O)[O-])s1 [2-(benzenesulfonyl)-N-(5-nitro-1,3-thiazol-2-yl)acetamide] | > 300 µM
12 | CC(=O)N1CCc2c(sc(NC(=O)C3CCCCC3)c2C(N)=O)C1 [2-(cyclohexylcarbonylamino)-6-ethanoyl-5,7-dihydro-4H-thieno[2,3-c]pyridine-3-carboxamide] | > 300 µM
13 | COC(=O)c1ccc2nc(NC(=O)C3CC3)sc2c1 [2-(cyclopropanecarbonylamino)-1,3-benzothiazole-6-carboxylic acid methyl ester] | > 300 µM
14 | c1ccc2c(CSc3nnc(-c4ccncc4)o3)cccc2c1 [2-(naphthalen-1-ylmethylsulfanyl)-5-pyridin-4-yl-1,3,4-oxadiazole] | 29.1 µM
15 | O=C1CCCC2=Nc3nc(SCc4ccccc4)nn3C(c3cccs3)C12 (stereo not given) [2-(phenylmethylthio)-9-thiophen-2-yl-5,6,7,9-tetrahydro-1H-[1,2,4]triazolo[5,1-b]quinazolin-8-one] | > 300 µM
16 | CCc1cccc(C)c1NC(=O)CSc1nnc(CCCOc2ccc(Cl)cc2Cl)n1C [2-({5-[3-(2,4-dichlorophenoxy)propyl]-4-methyl-4H-1,2,4-triazol-3-yl}thio)-N-(2-ethyl-6-methylphenyl)acetamide] | > 300 µM
17 | CCSc1nc2sc3c(c2c(=O)n1-c1ccccc1)CCN(C)C3 [2-Ethylsulfanyl-7-methyl-3-phenyl-5,6,7,8-tetrahydro-3H-9-thia-1,3,7-triaza-fluoren-4-one] | > 300 µM
18 | Cc1oc2ccc(OC(=O)c3cccs3)cc2c1C(=O)OC(C)C [2-Methyl-5-(thiophene-2-carbonyloxy)-benzofuran-3-carboxylic acid isopropyl ester] | > 300 µM

Row | SMILES | EC50
19 | Nc1nc(Nc2cccc(F)c2)nc(N2CCOCC2)c1[N+](=O)[O-] [2-N-(3-fluorophenyl)-6-morpholin-4-yl-5-nitropyrimidine-2,4-diamine] | > 300 µM
20 | Nc1ccccc1Nc1cc(-c2ccccc2)[nH]n1 [2-N-(5-phenyl-1H-pyrazol-3-yl)benzene-1,2-diamine] | > 300 µM
21 | Cc1cccc(Nc2nc(NCc3ccco3)nc(N)c2[N+](=O)[O-])c1 [2-N-(furan-2-ylmethyl)-4-N-(3-methylphenyl)-5-nitropyrimidine-2,4,6-triamine] | 64.4 µM
22 | COc1ccc(Nc2nc(NCc3ccco3)nc(N)c2[N+](=O)[O-])cc1 [2-N-(furan-2-ylmethyl)-4-N-(4-methoxyphenyl)-5-nitropyrimidine-2,4,6-triamine] | > 300 µM
23 | Nc1nc(NCc2ccccc2)nc(Nc2ccc(F)cc2)c1[N+](=O)[O-] [2-N-benzyl-4-N-(4-fluorophenyl)-5-nitropyrimidine-2,4,6-triamine] | > 300 µM
24 | O=C(CN1C(=O)c2ccccc2C1=O)Nc1ccccc1F [2-[1,3-bis(oxidanylidene)isoindol-2-yl]-N-(2-fluorophenyl)ethanamide] | > 300 µM
25 | Cc1ccccc1NC(=O)CN1C(=O)c2ccccc2C1=O [2-[1,3-bis(oxidanylidene)isoindol-2-yl]-N-(2-methylphenyl)ethanamide] | > 300 µM
26 | COCCn1c(SCC(=O)Nc2cccc(S(N)(=O)=O)c2)nc2ccccc21 [2-[1-(2-methoxyethyl)benzimidazol-2-yl]sulfanyl-N-(3-sulfamoylphenyl)ethanamide] | > 300 µM
27 | CNC(=O)NC(=O)CSc1nc2ccccc2n1CCOC [2-[1-(2-methoxyethyl)benzimidazol-2-yl]sulfanyl-N-(methylcarbamoyl)ethanamide] | > 300 µM
28 | COCCn1c(SCC(=O)NC(=O)NC(C)C)nc2ccccc21 [2-[1-(2-methoxyethyl)benzimidazol-2-yl]sulfanyl-N-(propan-2-ylcarbamoyl)ethanamide] | > 300 µM
29 | NS(=O)(=O)c1ccc(NC(=O)CN2C(=O)CCC2=O)cc1 [2-[2,5-bis(oxidanylidene)pyrrolidin-1-yl]-N-(4-sulfamoylphenyl)ethanamide] | > 300 µM
30 | Cc1cc(C)c(C#N)c(SCC(=O)c2ccc(Cl)cc2Cl)n1 [2-[2-(2,4-dichlorophenyl)-2-oxidanylidene-ethyl]sulfanyl-4,6-dimethyl-pyridine-3-carbonitrile] | > 300 µM
31 | Cc1[nH][nH]c(=O)c1N=Nc1ccccc1C#N [2-[2-(3-methyl-5-oxopyrazol-4-yl)hydrazinyl]benzonitrile] | 15.9 µM
32 | O=C(O)COCC(=O)N1CCN(C(c2ccccc2)c2ccccc2)CC1 [2-[2-(4-benzhydrylpiperazino)-2-oxoethoxy]acetic acid] | > 300 µM
33 | CCOC(=O)c1sc(NC(=O)CSc2nnc(C(C)C)n2C)nc1C [2-[2-(5-Isopropyl-4-methyl-4H-[1,2,4]triazol-3-ylsulfanyl)-acetylamino]-4-methyl-thiazole-5-carboxylic acid ethyl ester] | 26 µM
34 | COc1cccc2c1cc1c(=O)n(CC(=O)N3CCCCCC3)nc(C)n12 [2-[2-(azepan-1-yl)-2-oxidanylidene-ethyl]-9-methoxy-4-methyl-[1,2,4]triazino[4,5-a]indol-1-one] | > 300 µM
35 | CCN1CCc2c(sc(NC(=O)CN3C(=O)c4ccccc4C3=O)c2C(N)=O)C1 [2-[2-[1,3-bis(oxidanylidene)isoindol-2-yl]ethanoylamino]-6-ethyl-5,7-dihydro-4H-thieno[2,3-c]pyridine-3-carboxamide;hydrochloride] | > 300 µM
